Holding throughout (type): biochemical
One experiment addresses CDK2/CyclinE1 (Homo sapiens (Human), UniProt P24941). Put plainly: CDK2/CyclinE1 kinase inhibitory activity (Caliper mobility shift). To be noted: read-out: CDK2/Cyclin El IC50.
A further experiment addresses CDK4/Cyclin D1 (Homo sapiens (Human), UniProt P11802). Put plainly: CDK4/CyclinD1 kinase inhibitory activity (Caliper mobility shift).
The next experiment deals with CDK6/CyclinD1 (Homo sapiens (Human), UniProt Q00534). Put plainly: CDK6/CyclinD1 kinase inhibitory activity (Caliper mobility shift). Particulars: read-out: CDK6/Cyclin D1 IC50.
Chain of CDK6/CyclinD1 (Q00534 whole entry): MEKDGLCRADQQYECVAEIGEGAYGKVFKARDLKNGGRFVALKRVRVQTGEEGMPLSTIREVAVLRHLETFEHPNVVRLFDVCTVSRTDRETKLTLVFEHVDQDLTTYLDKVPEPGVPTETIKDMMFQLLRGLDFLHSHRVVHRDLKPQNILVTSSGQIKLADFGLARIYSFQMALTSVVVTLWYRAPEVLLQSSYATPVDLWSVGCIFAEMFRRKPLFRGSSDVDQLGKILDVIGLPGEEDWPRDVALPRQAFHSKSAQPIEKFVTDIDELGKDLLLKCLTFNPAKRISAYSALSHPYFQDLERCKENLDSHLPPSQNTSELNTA
Chain of CDK6/CyclinD1 (P24385 whole entry partner): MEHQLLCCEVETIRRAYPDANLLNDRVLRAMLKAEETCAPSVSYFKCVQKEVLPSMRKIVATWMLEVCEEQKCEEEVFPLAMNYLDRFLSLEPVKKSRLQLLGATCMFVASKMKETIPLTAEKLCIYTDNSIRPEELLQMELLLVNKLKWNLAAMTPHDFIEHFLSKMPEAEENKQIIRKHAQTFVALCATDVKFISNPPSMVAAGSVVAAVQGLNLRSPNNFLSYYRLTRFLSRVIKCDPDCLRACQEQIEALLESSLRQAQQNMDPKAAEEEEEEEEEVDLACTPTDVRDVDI
Another experiment addresses CDK9/CyclinT1 (Homo sapiens (Human), UniProt P50750). The experiment in a line: CDK9/CyclinT1 kinase inhibitory activity (Caliper mobility shift). To be noted: read-out: CDK9/Cyclin T1 IC50.
Another experiment concerns the target CDK1/CyclinB (Homo sapiens (Human), UniProt P06493). The experiment in a line: CDK1/CyclinB kinase inhibitory activity (Caliper mobility shift). Particulars: read-out: CDK1/Cyclin B1 IC50.
Another experiment has as its target CDK7/CyclinH/MAT1 (Homo sapiens (Human), UniProt P50613). The experiment in a line: CDK7/CyclinH/MAT1 kinase inhibitory activity (Caliper mobility shift).

Each structure is given as a SMILES string.

Chain of CDK1/CyclinB (P06493 whole entry): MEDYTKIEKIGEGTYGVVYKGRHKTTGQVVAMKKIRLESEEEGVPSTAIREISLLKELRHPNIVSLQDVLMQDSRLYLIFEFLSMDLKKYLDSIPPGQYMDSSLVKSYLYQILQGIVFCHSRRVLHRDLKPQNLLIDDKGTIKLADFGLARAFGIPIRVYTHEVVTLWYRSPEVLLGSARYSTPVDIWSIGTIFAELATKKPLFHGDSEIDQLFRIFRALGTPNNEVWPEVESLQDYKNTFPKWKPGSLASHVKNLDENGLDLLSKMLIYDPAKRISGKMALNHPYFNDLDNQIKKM
Chain of CDK1/CyclinB (P14635 whole entry partner): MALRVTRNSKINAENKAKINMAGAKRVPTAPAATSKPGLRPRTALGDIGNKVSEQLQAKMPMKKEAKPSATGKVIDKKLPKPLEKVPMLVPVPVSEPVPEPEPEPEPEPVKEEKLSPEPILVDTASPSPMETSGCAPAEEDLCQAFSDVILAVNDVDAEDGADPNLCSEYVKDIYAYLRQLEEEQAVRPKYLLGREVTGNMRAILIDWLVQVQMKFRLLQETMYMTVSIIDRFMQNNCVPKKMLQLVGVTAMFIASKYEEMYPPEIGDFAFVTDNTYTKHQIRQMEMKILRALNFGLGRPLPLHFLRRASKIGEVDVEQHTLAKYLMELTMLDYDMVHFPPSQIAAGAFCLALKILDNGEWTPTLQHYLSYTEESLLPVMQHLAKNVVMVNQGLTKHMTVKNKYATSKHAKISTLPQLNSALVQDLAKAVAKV
Chain of CDK9/CyclinT1 (P50750 whole entry): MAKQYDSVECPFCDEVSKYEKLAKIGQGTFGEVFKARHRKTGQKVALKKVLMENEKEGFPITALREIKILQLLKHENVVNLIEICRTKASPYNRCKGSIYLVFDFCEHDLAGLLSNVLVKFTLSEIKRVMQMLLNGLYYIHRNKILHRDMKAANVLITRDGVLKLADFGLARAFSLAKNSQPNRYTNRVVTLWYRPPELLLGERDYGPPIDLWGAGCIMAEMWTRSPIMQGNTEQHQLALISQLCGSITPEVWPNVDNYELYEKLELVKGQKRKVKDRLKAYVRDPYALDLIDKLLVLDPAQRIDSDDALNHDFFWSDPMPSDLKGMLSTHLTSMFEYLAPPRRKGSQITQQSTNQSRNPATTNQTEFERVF
Chain of CDK9/CyclinT1 (O60563 whole entry partner): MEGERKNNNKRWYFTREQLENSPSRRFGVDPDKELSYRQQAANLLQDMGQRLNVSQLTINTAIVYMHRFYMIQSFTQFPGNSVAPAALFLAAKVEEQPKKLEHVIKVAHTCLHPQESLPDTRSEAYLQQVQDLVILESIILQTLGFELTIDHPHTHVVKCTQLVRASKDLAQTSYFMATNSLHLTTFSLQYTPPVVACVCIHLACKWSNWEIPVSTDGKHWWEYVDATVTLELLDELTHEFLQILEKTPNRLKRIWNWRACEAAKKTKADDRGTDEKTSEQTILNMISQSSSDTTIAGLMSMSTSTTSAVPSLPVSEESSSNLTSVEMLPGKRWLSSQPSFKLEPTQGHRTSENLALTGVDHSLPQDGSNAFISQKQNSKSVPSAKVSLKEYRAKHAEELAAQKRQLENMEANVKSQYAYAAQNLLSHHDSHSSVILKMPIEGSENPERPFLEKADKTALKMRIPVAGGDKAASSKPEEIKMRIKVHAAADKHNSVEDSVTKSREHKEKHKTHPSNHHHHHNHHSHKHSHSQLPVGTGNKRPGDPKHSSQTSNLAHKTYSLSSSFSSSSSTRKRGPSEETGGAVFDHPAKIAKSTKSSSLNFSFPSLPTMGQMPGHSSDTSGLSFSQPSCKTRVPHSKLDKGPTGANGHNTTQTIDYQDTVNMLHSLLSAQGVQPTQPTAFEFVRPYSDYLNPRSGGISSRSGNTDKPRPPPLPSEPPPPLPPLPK
Chain of CDK7/CyclinH/MAT1 (P50613 whole entry): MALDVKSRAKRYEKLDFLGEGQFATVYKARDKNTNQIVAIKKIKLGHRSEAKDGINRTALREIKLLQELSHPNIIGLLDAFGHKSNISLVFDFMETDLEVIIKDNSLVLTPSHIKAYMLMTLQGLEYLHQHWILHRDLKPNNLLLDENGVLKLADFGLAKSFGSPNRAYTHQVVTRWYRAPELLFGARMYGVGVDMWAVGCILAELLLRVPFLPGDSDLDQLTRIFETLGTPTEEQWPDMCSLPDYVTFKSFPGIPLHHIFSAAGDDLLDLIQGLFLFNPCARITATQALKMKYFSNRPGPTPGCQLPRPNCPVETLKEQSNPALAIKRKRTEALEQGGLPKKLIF
Chain of CDK7/CyclinH/MAT1 (P51946 whole entry partner): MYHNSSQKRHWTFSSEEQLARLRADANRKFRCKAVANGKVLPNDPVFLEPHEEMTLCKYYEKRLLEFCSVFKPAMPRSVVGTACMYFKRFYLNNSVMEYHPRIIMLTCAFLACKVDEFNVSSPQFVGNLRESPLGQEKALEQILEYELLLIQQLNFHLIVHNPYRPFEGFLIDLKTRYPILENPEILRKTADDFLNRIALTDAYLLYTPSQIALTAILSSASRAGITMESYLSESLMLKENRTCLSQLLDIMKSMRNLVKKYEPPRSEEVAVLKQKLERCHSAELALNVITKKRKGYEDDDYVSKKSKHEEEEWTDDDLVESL
Chain of CDK7/CyclinH/MAT1 (P51948 whole entry partner): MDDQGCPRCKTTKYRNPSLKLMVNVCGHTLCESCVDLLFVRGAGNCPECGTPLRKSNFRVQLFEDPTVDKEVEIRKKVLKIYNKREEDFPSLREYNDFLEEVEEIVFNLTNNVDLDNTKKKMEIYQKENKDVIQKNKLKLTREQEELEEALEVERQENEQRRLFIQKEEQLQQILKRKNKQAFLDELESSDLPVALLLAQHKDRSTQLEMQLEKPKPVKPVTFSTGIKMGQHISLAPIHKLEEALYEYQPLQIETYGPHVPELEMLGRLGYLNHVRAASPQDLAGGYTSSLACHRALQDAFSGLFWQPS
Chain of CDK4/Cyclin D1 (P11802 whole entry): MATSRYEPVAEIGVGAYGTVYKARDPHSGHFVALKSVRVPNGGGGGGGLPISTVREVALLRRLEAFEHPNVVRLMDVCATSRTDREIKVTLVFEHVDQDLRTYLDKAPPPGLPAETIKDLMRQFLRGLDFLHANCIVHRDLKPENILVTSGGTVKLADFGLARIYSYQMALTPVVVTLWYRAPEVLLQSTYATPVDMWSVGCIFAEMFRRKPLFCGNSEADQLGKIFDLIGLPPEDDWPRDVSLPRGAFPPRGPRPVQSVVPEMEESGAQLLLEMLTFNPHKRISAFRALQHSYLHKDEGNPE
Chain of CDK4/Cyclin D1 (P24385 whole entry partner): as the sequence (P24385 whole entry partner) above

Consider `C[C@]1(O)CC(F)(F)C[C@H]1Oc1nc(NC2CCN(S(C)(=O)=O)CC2)ncc1C#N` (relative stereo) [Example 4b, cis-4-((4,4-difluoro-2-hydroxy-2-methylcyclopentyl)oxy)-2-((1-(methylsulfonyl)piperidin-4-yl)amino)pyrimidine-5-carbonitrile], for which the IC50 at CDK2/CyclinE1 is 0.01 to 0.1 µM; on CDK4/Cyclin D1, 0.1 to 1 µM; at CDK6/CyclinD1 it was 0.01 to 0.1 µM; at CDK9/CyclinT1 it was ≥ 1 µM; at CDK1/CyclinB, 0.1 to 1 µM.
In the case of `C[C@]1(O)CCC[C@H]1Oc1nc(NC2CCN(S(C)(=O)=O)CC2)ncc1C#N` (relative stereo) [Example 5a, cis-4-((2-hydroxy-2-methylcyclopentyl-4,4-d2)oxy)-2-((1-(methylsulfonyl)piperidin-4-yl)amino)pyrimidine-5-carbonitrile], the IC50 at CDK2/CyclinE1 was < 0.01 µM; at CDK4/Cyclin D1 it was < 0.01 µM; on CDK6/CyclinD1, 0.01 to 0.1 µM; on CDK9/CyclinT1 it was 0.1 to 1 µM; on CDK1/CyclinB it was 0.01 to 0.1 µM.
Regarding `C[C@]1(O)CCC[C@H]1Oc1nc(NC2CCN(S(C)(=O)=O)CC2)ncc1C#N` (relative stereo) [Example 5b, cis-4-((2-hydroxy-2-methylcyclopentyl-4,4-d2)oxy)-2-((1-(methylsulfonyl)piperidin-4-yl)amino)pyrimidine-5-carbonitrile], the IC50 is 0.01 to 0.1 µM on CDK2/CyclinE1; 0.1 to 1 µM at CDK4/Cyclin D1; 0.01 to 0.1 µM on CDK6/CyclinD1; ≥ 1 µM at CDK9/CyclinT1; 0.1 to 1 µM on CDK1/CyclinB.
As to `Cn1cc(S(=O)(=O)N2CCC(Nc3ncc(C#N)c(O[C@@H]4CCC(F)(F)C[C@]4(C)O)n3)CC2)cn1` (relative stereo) [Example 7b, cis-4-((4,4-difluoro-2-hydroxy-2-methylcyclohexyl)oxy)-2-((1-((1-methyl-1H-pyrazol-4-yl)sulfonyl)piperidin-4-yl)amino)pyrimidine-5-carbonitrile], the IC50 at CDK2/CyclinE1 is 0.01 to 0.1 µM; at CDK4/Cyclin D1, 0.1 to 1 µM; on CDK6/CyclinD1 it was 0.1 to 1 µM; on CDK7/CyclinH/MAT1 it was ≥ 1 µM.
As to `C[C@]1(O)COC[C@H]1Oc1nc(NC2CCN(S(C)(=O)=O)CC2)ncc1C(F)(F)F` (relative stereo) [Example 104b, cis-3-methyl-4-((2-((1-(methylsulfonyl)piperidin-4-yl)amino)-5-(trifluoromethyl)pyrimidin-4-yl)oxy)tetrahydrofuran-3-ol], the IC50 at CDK2/CyclinE1 is 0.01 to 0.1 µM; at CDK4/Cyclin D1, 0.1 to 1 µM; at CDK6/CyclinD1, 0.1 to 1 µM; at CDK9/CyclinT1, ≥ 1 µM; on CDK1/CyclinB, 0.1 to 1 µM.
As to `CC1(O)CCCC1Oc1nc(NC2CCN(S(=O)(=O)CC3CCOC3)CC2)ncc1C#N` (single isomer, unassigned) [Example 40b], the IC50 is 0.01 to 0.1 µM on CDK2/CyclinE1, 0.01 to 0.1 µM on CDK4/Cyclin D1, 0.01 to 0.1 µM at CDK6/CyclinD1 and ≥ 1 µM on CDK7/CyclinH/MAT1.
Regarding `CC1(O)CCCC1Oc1nc(NC2CCN(S(=O)(=O)C(F)(F)F)CC2)ncc1C#N` (single isomer, unassigned) [Example 42a], the IC50 is < 0.01 µM at CDK2/CyclinE1, 0.01 to 0.1 µM on CDK4/Cyclin D1, 0.01 to 0.1 µM at CDK6/CyclinD1 and 0.1 to 1 µM at CDK7/CyclinH/MAT1.
Take `CC1(O)CCCC1Oc1nc(NC2CCN(S(=O)(=O)C(F)(F)F)CC2)ncc1C#N` (single isomer, unassigned) [Example 42b]: the IC50 on CDK2/CyclinE1 is 0.01 to 0.1 µM; at CDK4/Cyclin D1, 0.1 to 1 µM; on CDK6/CyclinD1, 0.1 to 1 µM; at CDK7/CyclinH/MAT1, ≥ 1 µM.
Regarding `CC1(O)CC(F)(F)CC1Oc1nc(NC2CCN(S(=O)(=O)CC3CC3)CC2)ncc1C#N` (single isomer, unassigned) [Example 44a], the IC50 on CDK2/CyclinE1 is 0.01 to 0.1 µM; at CDK4/Cyclin D1, 0.1 to 1 µM; at CDK6/CyclinD1, 0.01 to 0.1 µM; on CDK9/CyclinT1, ≥ 1 µM; on CDK1/CyclinB it was 0.1 to 1 µM.
Regarding `CC1(O)COCCC1Oc1nc(NC2CCN(S(C)(=O)=O)CC2)ncc1C#N` (single isomer, unassigned) [Example 45b], the IC50 is 0.1 to 1 µM at CDK2/CyclinE1; 0.1 to 1 µM at CDK4/Cyclin D1; 0.1 to 1 µM on CDK6/CyclinD1; ≥ 1 µM on CDK9/CyclinT1; ≥ 1 µM at CDK1/CyclinB.
Take `CC1(O)CCC(F)(F)CC1Oc1nc(NC2CCN(S(C)(=O)=O)CC2)ncc1C#N` (single isomer, unassigned) [Example 46a]: the IC50 on CDK2/CyclinE1, on CDK4/Cyclin D1 and at CDK6/CyclinD1 was 0.1 to 1 µM throughout.
With `Cn1cc(S(=O)(=O)N2CCC(Nc3ncc(C#N)c(OC4CCCC4(C)O)n3)CC2)cn1` (single isomer, unassigned) [Example 48b], the IC50 on CDK2/CyclinE1 is < 0.01 µM; at CDK4/Cyclin D1, 0.01 to 0.1 µM; at CDK6/CyclinD1, 0.01 to 0.1 µM; on CDK9/CyclinT1, ≥ 1 µM; at CDK1/CyclinB, 0.01 to 0.1 µM.
Turning to `CNS(=O)(=O)c1ccc(Nc2ncc(C(F)(F)F)c(O[C@H]3CCOC[C@H]3O)n2)c(F)c1` (single isomer, unassigned) [Example 101b, cis-3-fluoro-4-((4-((3-hydroxytetrahydro-2H-pyran-4-yl)oxy)-5-(trifluoromethyl)pyrimidin-2-yl)amino)-N-(methyl-d3)benzenesulfonamide], the IC50 at CDK4/Cyclin D1 and on CDK6/CyclinD1 was ≥ 1 µM throughout.
As to `CNS(=O)(=O)c1ccc(Nc2ncc(C(F)(F)F)c(OC3CCOCCC3O)n2)cc1` (single isomer, unassigned) [Example 102b, 4-((4-((5-hydroxyoxepan-4-yl)oxy)-5-(trifluoromethyl)pyrimidin-2-yl)amino)-N-(methyl-d3)benzenesulfonamide], the IC50 at CDK2/CyclinE1 was < 0.01 µM; on CDK4/Cyclin D1 it was ≥ 1 µM.
Regarding `CNS(=O)(=O)c1ccc(Nc2ncc(C(F)(F)F)c(OC3CCOCCC3O)n2)cc1` (single isomer, unassigned) [Example 102c, 4-((4-((5-hydroxyoxepan-4-yl)oxy)-5-(trifluoromethyl)pyrimidin-2-yl)amino)-N-(methyl-d3)benzenesulfonamide], the IC50 is < 0.01 µM on CDK2/CyclinE1 and ≥ 1 µM at CDK4/Cyclin D1.
Taken in the same sequence, the figures for `CNS(=O)(=O)c1ccc(Nc2ncc(C(F)(F)F)c(OC3CCOCCC3O)n2)cc1` (single isomer, unassigned) [Example 102d, 4-((4-((5-hydroxyoxepan-4-yl)oxy)-5-(trifluoromethyl)pyrimidin-2-yl)amino)-N-(methyl-d3)benzenesulfonamide] were < 0.01 µM and ≥ 1 µM.
As to `[2H]C([2H])([2H])NS(=O)(=O)c1ccc(Nc2ncc(C(F)(F)F)c(O[C@H]3CCCOC[C@H]3O)n2)cc1` (single isomer, unassigned) [Example 103b, cis-4-((4-((3-hydroxyoxepan-4-yl)oxy)-5-(trifluoromethyl)pyrimidin-2-yl)amino)-N-(methyl-d3)benzenesulfonamide], the results for the IC50 at CDK4/Cyclin D1, on CDK7/CyclinH/MAT1 and on CDK1/CyclinB were ≥ 1 µM, ≥ 1 µM and 0.1 to 1 µM, respectively.
Turning to `CC1(O)COCCC1Oc1nc(NC2CCN(S(C)(=O)=O)CC2)ncc1C(F)(F)F` (single isomer, unassigned) [Example 124b], the IC50 was 0.1 to 1 µM at CDK2/CyclinE1; 0.1 to 1 µM on CDK4/Cyclin D1; 0.1 to 1 µM at CDK6/CyclinD1; ≥ 1 µM at CDK9/CyclinT1; ≥ 1 µM at CDK1/CyclinB.
For the compound `C[C@H]1CCCN(c2nc(Nc3ccc(S(N)(=O)=O)cc3)ncc2C#N)C1` [Example 71], the IC50 was < 0.01 µM at CDK2/CyclinE1; 0.1 to 1 µM on CDK6/CyclinD1; 0.01 to 0.1 µM on CDK9/CyclinT1; ≥ 1 µM at CDK7/CyclinH/MAT1; 0.01 to 0.1 µM at CDK1/CyclinB.
For `C[C@@H]1CCCN(c2nc(Nc3ccc(S(N)(=O)=O)cc3)ncc2C#N)C1` [Example 72], the IC50 on CDK2/CyclinE1 is 0.01 to 0.1 µM; on CDK6/CyclinD1, 0.1 to 1 µM; at CDK9/CyclinT1, 0.1 to 1 µM; at CDK7/CyclinH/MAT1 it was ≥ 1 µM; at CDK1/CyclinB it was 0.1 to 1 µM.
Turning to `C[C@@H]1CCCCN1c1nc(Nc2ccc(S(N)(=O)=O)cc2)ncc1C#N` [Example 73], the IC50 was < 0.01 µM on CDK2/CyclinE1; 0.1 to 1 µM on CDK6/CyclinD1; 0.1 to 1 µM at CDK9/CyclinT1; 0.1 to 1 µM at CDK7/CyclinH/MAT1; 0.01 to 0.1 µM at CDK1/CyclinB.
On to `C[C@H]1CCCCN1c1nc(Nc2ccc(S(N)(=O)=O)cc2)ncc1C#N` [Example 74], for which the IC50 on CDK2/CyclinE1 is < 0.01 µM; at CDK6/CyclinD1 it was 0.1 to 1 µM; at CDK9/CyclinT1, 0.1 to 1 µM; on CDK7/CyclinH/MAT1 it was ≥ 1 µM; at CDK1/CyclinB, 0.01 to 0.1 µM.
With `CC1(C)CCCN(c2nc(Nc3ccc(S(N)(=O)=O)cc3)ncc2C#N)C1` [Example 83], the IC50 at CDK2/CyclinE1 was < 0.01 µM; on CDK6/CyclinD1, 0.1 to 1 µM; at CDK9/CyclinT1 it was 0.01 to 0.1 µM; at CDK7/CyclinH/MAT1 it was ≥ 1 µM; on CDK1/CyclinB, 0.01 to 0.1 µM.
With `NS(=O)(=O)c1ccc(Nc2ncc(F)c(N3CCCCC3)n2)cc1` [Example 86], the IC50 on CDK2/CyclinE1 was 0.01 to 0.1 µM; at CDK6/CyclinD1, ≥ 1 µM; at CDK9/CyclinT1, 0.01 to 0.1 µM; at CDK7/CyclinH/MAT1, ≥ 1 µM; at CDK1/CyclinB, 0.01 to 0.1 µM.
For `N#Cc1cnc(Nc2ccc(S(N)(=O)=O)cc2)nc1-c1ccc(O)cc1` [Example 92, 4-((5-cyano-4-(4-hydroxyphenyl)pyrimidin-2-yl)amino)benzenesulfonamide], the IC50 is < 0.01 µM at CDK2/CyclinE1; 0.1 to 1 µM on CDK6/CyclinD1; 0.1 to 1 µM at CDK9/CyclinT1; ≥ 1 µM on CDK7/CyclinH/MAT1; 0.01 to 0.1 µM at CDK1/CyclinB.
For `N#Cc1cnc(Nc2ccc(S(N)(=O)=O)cc2)nc1-c1ccccc1` [Example 93], the IC50 was 0.01 to 0.1 µM at CDK2/CyclinE1; ≥ 1 µM at CDK6/CyclinD1; 0.1 to 1 µM on CDK9/CyclinT1; ≥ 1 µM on CDK7/CyclinH/MAT1; 0.1 to 1 µM at CDK1/CyclinB.

For the origin of these results see patent US20240166635A1, “AMINOHETEROARYL KINASE INHIBITORS” (Anrui Biomedical Technology (Guangzhou) Co.,Ltd., priority 2020, published 2024).
